Tests used:
Type in all cases: biochemical
CDK2/cyclinE (h) = CDK2/cyclinE (h) (Homo sapiens, UniProt P24941); assay: Kinase profiling C3.4 CDK2/cyclinE human; conditions: test concentration of 10^−6 M
Summary of the method: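 Radiometric filter-binding assay: 5-10 mU enzyme with 0.1 mg/ml histone H1 in 8 mM MOPS pH 7.0, 0.2 mM EDTA, 10 mM Mg acetate and [γ-33P]ATP. Incubated 40 min at room temperature, stopped with phosphoric acid. Substrate-bound 33P counted on P30 filtermat.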

CDK2/cyclinA (h) = CDK2/cyclinA (h) (Homo sapiens, UniProt P24941); assay: Kinase profiling C3.3 CDK2/cyclinA human; conditions: test concentration of 10^−6 M
Summary of the method: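 Human CDK2/cyclinA (5-10 mU) phosphorylates 0.1 mg/ml histone H1 in 8 mM MOPS pH 7.0, EDTA, 10 mM Mg acetate with [γ-33P]ATP, 40 min at room temperature. After phosphoric acid stop, filter-bound 33P counted by scintillation.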

CDK3/cyclinE (h) = CDK3/cyclinE (h) (Homo sapiens, UniProt Q00526); assay: Kinase profiling C3.5 CDK3/cyclinE human; conditions: test concentration of 10^−6 M
Summary of the method: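 Human CDK3/cyclinE (5-10 mU) phosphorylated 0.1 mg/ml histone H1 in 8 mM MOPS pH 7.0, 0.2 mM EDTA and 10 mM MgAcetate with [γ-33P]ATP. Reaction ran 40 min at room temperature and was stopped with phosphoric acid. Substrate-bound radioactivity was captured on P30 filtermat and measured by scintillation counting.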

CDK1/cyclinB (h) = CDK1/cyclinB (h) (Homo sapiens, UniProt P06493); assay: Kinase profiling C3.2 CDK1/cyclinB human; conditions: test concentration of 10^−6 M
CDK1/cyclinB (h), sequence (P06493 whole entry): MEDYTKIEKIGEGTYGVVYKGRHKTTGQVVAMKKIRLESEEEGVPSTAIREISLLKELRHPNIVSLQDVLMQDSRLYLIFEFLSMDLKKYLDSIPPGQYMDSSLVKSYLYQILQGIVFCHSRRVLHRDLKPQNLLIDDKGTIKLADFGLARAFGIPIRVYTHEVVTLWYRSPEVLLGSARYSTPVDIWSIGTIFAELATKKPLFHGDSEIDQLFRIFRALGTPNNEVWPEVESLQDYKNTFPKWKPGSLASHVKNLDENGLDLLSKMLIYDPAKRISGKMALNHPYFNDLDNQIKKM
CDK1/cyclinB (h), sequence (P14635 whole entry partner): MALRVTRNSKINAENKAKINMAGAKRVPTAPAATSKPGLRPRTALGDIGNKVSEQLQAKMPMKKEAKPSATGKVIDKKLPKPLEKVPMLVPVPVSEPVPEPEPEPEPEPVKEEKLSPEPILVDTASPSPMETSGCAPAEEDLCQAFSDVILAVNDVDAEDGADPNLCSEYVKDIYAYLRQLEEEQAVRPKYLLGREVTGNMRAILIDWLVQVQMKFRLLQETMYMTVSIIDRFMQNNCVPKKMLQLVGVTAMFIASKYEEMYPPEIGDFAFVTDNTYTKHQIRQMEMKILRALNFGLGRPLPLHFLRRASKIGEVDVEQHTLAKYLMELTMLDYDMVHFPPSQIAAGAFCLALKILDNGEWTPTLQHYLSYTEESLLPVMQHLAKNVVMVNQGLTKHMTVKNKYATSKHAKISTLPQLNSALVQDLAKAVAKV
Summary of the method: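 Radiometric filter-binding assay: human CDK1/cyclinB (5-10 mU) with 0.1 mg/ml histone H1 substrate and [γ-33P]ATP in 8 mM MOPS pH 7.0, 10 mM Mg acetate, 40 min at room temperature. Stopped with phosphoric acid; substrate-bound 33P counted on P30 filtermat by scintillation.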

CDK7/cyclinH/MAT1 (h) = CDK7/cyclinH/MAT1 (h) (Homo sapiens, UniProt P50613); assay: Kinase profiling C3.8 CDK7/cyclinH/MAT1 human; conditions: CDK7/cyclinH/MAT1, test concentration of 10^−6 M
CDK7/cyclinH/MAT1 (h), sequence (P50613 whole entry): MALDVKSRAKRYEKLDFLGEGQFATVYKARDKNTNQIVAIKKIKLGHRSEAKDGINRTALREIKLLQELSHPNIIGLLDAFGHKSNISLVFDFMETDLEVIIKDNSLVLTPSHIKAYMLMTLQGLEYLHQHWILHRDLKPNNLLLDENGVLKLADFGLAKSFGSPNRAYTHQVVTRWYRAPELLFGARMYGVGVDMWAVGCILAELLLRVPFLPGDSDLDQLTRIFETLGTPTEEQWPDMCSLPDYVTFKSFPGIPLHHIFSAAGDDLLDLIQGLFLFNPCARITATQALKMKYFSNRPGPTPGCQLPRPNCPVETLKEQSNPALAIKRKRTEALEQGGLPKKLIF
CDK7/cyclinH/MAT1 (h), sequence (P51946 whole entry partner): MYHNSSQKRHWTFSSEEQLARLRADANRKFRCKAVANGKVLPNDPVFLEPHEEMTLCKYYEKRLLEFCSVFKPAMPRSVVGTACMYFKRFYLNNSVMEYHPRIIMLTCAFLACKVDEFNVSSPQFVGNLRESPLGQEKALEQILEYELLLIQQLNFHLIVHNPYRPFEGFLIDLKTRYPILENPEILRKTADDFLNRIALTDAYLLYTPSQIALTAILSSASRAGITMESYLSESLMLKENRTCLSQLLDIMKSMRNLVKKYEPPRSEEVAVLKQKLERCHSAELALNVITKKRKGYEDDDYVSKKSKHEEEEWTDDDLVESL
CDK7/cyclinH/MAT1 (h), sequence (P51948 whole entry partner): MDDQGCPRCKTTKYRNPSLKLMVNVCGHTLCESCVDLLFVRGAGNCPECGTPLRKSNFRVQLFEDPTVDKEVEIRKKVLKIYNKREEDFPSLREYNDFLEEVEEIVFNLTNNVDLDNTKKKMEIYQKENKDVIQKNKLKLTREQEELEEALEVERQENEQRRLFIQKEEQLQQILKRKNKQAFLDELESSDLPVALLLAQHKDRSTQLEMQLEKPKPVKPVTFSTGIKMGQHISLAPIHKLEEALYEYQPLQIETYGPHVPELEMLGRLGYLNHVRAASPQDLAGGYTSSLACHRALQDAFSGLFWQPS
Summary of the method: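 Human CDK7/cyclinH/MAT1 (5-10 mU) incubated 40 min at room temperature in 8 mM MOPS pH 7.0, 0.2 mM EDTA, 10 mM Mg acetate, 500 μM peptide substrate and [γ-^33P]ATP. Stopped with phosphoric acid; substrate phosphorylation measured by filter binding and scintillation counting.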

GSK-3α = GSK-3α (Homo sapiens, UniProt P49840); assay: GSK-3 kinase assay (C1), GSK-3α; conditions: 1 μM ATP; for IC50: read-out: C1 Score α
GSK-3α, sequence (P49840 whole entry, species assumed): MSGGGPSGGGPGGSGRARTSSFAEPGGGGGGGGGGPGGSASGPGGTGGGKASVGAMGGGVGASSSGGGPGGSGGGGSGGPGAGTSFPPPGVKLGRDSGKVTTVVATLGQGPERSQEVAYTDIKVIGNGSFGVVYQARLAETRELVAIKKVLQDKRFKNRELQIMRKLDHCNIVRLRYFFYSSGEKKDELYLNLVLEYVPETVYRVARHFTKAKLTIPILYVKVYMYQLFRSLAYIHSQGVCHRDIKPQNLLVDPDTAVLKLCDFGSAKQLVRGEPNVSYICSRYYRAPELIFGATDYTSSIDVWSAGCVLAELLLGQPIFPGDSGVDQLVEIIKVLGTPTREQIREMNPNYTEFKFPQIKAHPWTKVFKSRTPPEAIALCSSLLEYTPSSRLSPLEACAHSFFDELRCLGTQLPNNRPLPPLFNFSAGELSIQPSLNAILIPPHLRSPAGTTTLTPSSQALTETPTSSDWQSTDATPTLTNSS
Summary of the method: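 Radiometric SPA at room temperature in 25 mM Tris pH 7.4 with 10 mM MgCl2, 1 mM DTT, 5.7 ng/μl GSK-3β or 0.25 ng/μl GSK-3α, 5 μM biotinylated CREB peptide and 1 μM ATP plus ^33P-ATP. Stopped after 1 h; IC50 from dose-response versus no-compound control, reported as pIC50 score bands.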

Row | Structure (SMILES) | C3.4 score (CDK2/cyclinE (h)) | C3.3 score (CDK2/cyclinA (h)) | C3.5 score (CDK3/cyclinE (h)) | C3.2 score (CDK1/cyclinB (h)) | C3.8 score (CDK7/cyclinH/MAT1 (h)) | IC50 (GSK-3α) | C1 Score α (GSK-3α)
1 | O=C1CN2CCN(CC2)Cc2cccc(c2)Nc2ncnc(n2)-c2ccnc(c2)CCCN1 [Compound 36] | 4 (Score 4 = >80% inhibition) | 4 (Score 4 = >80% inhibition) | 3 (Score 3 = 60-80% inhibition) | 4 (Score 4 = >80% inhibition) | 2 (Score 2 = 30-60% inhibition) | < 10 nM | 
2 | CCN1CC(=O)NCCCc2cc(ccn2)-c2ncnc(n2)Nc2cc(Cl)cc(c2)C1 [Compound 34] | 4 (Score 4 = >80% inhibition) | 4 (Score 4 = >80% inhibition) | 4 (Score 4 = >80% inhibition) | 4 (Score 4 = >80% inhibition) | 2 (Score 2 = 30-60% inhibition) | < 10 nM | 
3 | CN1CC(=O)NCCCc2cc(ccn2)-c2ncnc(n2)Nc2cc(Cl)cc(c2)C1 [Compound 33] | 4 (Score 4 = >80% inhibition) | 4 (Score 4 = >80% inhibition) | 4 (Score 4 = >80% inhibition) | 4 (Score 4 = >80% inhibition) | 3 (Score 3 = 60-80% inhibition) | < 10 nM | 
4 | CN1CC(=O)NCC#Cc2cc(ccn2)-c2ncnc(n2)Nc2cccc(c2)C1 [Compound 1] | 4 (Score 4 = >80% inhibition) | 4 (Score 4 = >80% inhibition) | 4 (Score 4 = >80% inhibition) | 4 (Score 4 = >80% inhibition) | 4 (Score 4 = >80% inhibition) | < 10 nM | 
5 | CN1CCCc2cc(ccn2)-c2ncnc(n2)Nc2cccc(c2)CNC(=O)C1 [Compound 7] | 4 (Score 4 = >80% inhibition) | 4 (Score 4 = >80% inhibition) | 4 (Score 4 = >80% inhibition) | 4 (Score 4 = >80% inhibition) | 2 (Score 2 = 30-60% inhibition) | < 10 nM | 
6 | O=C1CCN2CCN(CC2)Cc2cccc(c2)Nc2ncnc(n2)-c2ccnc(c2)CCCN1 [Compound 35] | 4 (Score 4 = >80% inhibition) | 4 (Score 4 = >80% inhibition) | 4 (Score 4 = >80% inhibition) | 4 (Score 4 = >80% inhibition) | 4 (Score 4 = >80% inhibition) | 10 to 100 nM | 
7 | O=C1NCCCc2cncc(c2)-c2ncnc(n2)Nc2cccc(c2)CN[C@H]1CO [Compound 81] | 4 (Score 4 = >80% inhibition) | 3 (Score 3 = 60-80% inhibition) | 3 (Score 3 = 60-80% inhibition) | 4 (Score 4 = >80% inhibition) | 1 (Score 1 = 10-30% inhibition) | < 10 nM | 
8 | CN1CCN(CCN2CCC(=O)NCCCc3cc(ccn3)-c3ncnc(n3)Nc3cccc(c3)C2)CC1 [Compound 11] | 1 (Score 1 = 10-30% inhibition) | 1 (Score 1 = 10-30% inhibition) | 1 (Score 1 = 10-30% inhibition) | 1 (Score 1 = 10-30% inhibition) | 1 (Score 1 = 10-30% inhibition) | 100 to 1000 nM | 
9 | CCN1CCCc2cc(ccn2)-c2ncnc(n2)Nc2cccc(c2)CCNC(=O)C1 [Compound 30] | 4 (Score 4 = >80% inhibition) | 4 (Score 4 = >80% inhibition) | 4 (Score 4 = >80% inhibition) | 4 (Score 4 = >80% inhibition) | 3 (Score 3 = 60-80% inhibition) | < 10 nM | 
10 | CCN1CC(=O)NCCCc2cccc(c2)-c2ncnc(n2)Nc2cccc(c2)C1 [Compound 54] | 4 (Score 4 = >80% inhibition) | 4 (Score 4 = >80% inhibition) | 2 (Score 2 = 30-60% inhibition) | 3 (Score 3 = 60-80% inhibition) | 1 (Score 1 = 10-30% inhibition) | < 10 nM | 
11 | O=C1NCCCc2cccc(c2)-c2ncnc(n2)Nc2cccc(c2)CN[C@H]1CO [Compound 46] | 4 (Score 4 = >80% inhibition) | 4 (Score 4 = >80% inhibition) | 4 (Score 4 = >80% inhibition) | 4 (Score 4 = >80% inhibition) | 1 (Score 1 = 10-30% inhibition) | < 10 nM | 

Next, values leading:

Row | C3.4 score (CDK2/cyclinE (h)) | C3.3 score (CDK2/cyclinA (h)) | C3.5 score (CDK3/cyclinE (h)) | C3.2 score (CDK1/cyclinB (h)) | C3.8 score (CDK7/cyclinH/MAT1 (h)) | IC50 (GSK-3α) | C1 Score α (GSK-3α) | Structure (SMILES)
12 | 4 (Score 4 = >80% inhibition) | 4 (Score 4 = >80% inhibition) | 4 (Score 4 = >80% inhibition) | 4 (Score 4 = >80% inhibition) | 2 (Score 2 = 30-60% inhibition) |  | 4 (Score 4=pIC50 value>8) | CN1CC(=O)NCCCc2cc(ccn2)-c2ncnc(n2)Nc2cccc(c2)C1 [Compound 8]
13 | 1 (Score 1 = 10-30% inhibition) | 4 (Score 4 = >80% inhibition) | 2 (Score 2 = 30-60% inhibition) | 2 (Score 2 = 30-60% inhibition) | 2 (Score 2 = 30-60% inhibition) | 10 to 100 nM |  | O=C1NCCCc2cc(ccn2)-c2ncnc(n2)Nc2cccc(c2)CN2C[C@H](O)C[C@@H]12 [Compound 14]
14 | 4 (Score 4 = >80% inhibition) | 4 (Score 4 = >80% inhibition) | 3 (Score 3 = 60-80% inhibition) | 4 (Score 4 = >80% inhibition) | 4 (Score 4 = >80% inhibition) | 100 to 1000 nM |  | CN1CCC(=O)NCCCc2cc(ccn2)-c2ncnc(n2)Nc2cccc(c2)C1 [Compound 3]
15 | 4 (Score 4 = >80% inhibition) | 4 (Score 4 = >80% inhibition) | 4 (Score 4 = >80% inhibition) | 4 (Score 4 = >80% inhibition) | 4 (Score 4 = >80% inhibition) | < 10 nM |  | CN1CC(=O)NCCCc2cc(ccn2)-c2ncnc(n2)Nc2cccc(c2)C1 [Compound 10]
16 | 4 (Score 4 = >80% inhibition) | 4 (Score 4 = >80% inhibition) | 3 (Score 3 = 60-80% inhibition) | 3 (Score 3 = 60-80% inhibition) | 3 (Score 3 = 60-80% inhibition) | 100 to 1000 nM |  | O=C1NCCCc2cc(ccn2)-c2ncnc(n2)Nc2cccc(c2)CN2CCCC12 (stereo not drawn) [Compound 12]
17 | 2 (Score 2 = 30-60% inhibition) | 2 (Score 2 = 30-60% inhibition) | 2 (Score 2 = 30-60% inhibition) | 1 (Score 1 = 10-30% inhibition) | 2 (Score 2 = 30-60% inhibition) | 100 to 1000 nM |  | CN1CCCC(=O)NCCCc2cc(ccn2)-c2ncnc(n2)Nc2cccc(c2)C1 [Compound 13]
18 | 2 (Score 2 = 30-60% inhibition) | 2 (Score 2 = 30-60% inhibition) | 1 (Score 1 = 10-30% inhibition) | 1 (Score 1 = 10-30% inhibition) | 2 (Score 2 = 30-60% inhibition) | 10 to 100 nM |  | O=C1NCCCc2cc(ccn2)-c2ncnc(n2)Nc2cccc(c2)CN2CCCC1C2 (stereo not drawn) [Compound 15]

From patent publication US8778919B2, “Cyclic anilino—pyridinotriazines” (Janssen Pharmaceutica NV, priority 2005, dated 2014)
